From the supplement of paper PMC10307832

compound: CC1=CC(=C(N1C2=CC=C(C=C2)Cl)C)C(=O)CN3CCCCC3 [IU1-47] + CC(=O)Nc1cccc(-n2c(=O)n(C3CC3)c(=O)c3c(Nc4ccc(I)cc4F)n(C)c(=O)c(C)c32)c1 [Trametinib] (partner 0.02 µM); test: relative viability (nuclei count vs DMSO), 5 days (fraction); higher = more cells survive; settings: first compound 8 µM
Method in brief: (§1)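 Lung cancer cell lines in 1536-well plates were dosed by pin tool the day after seeding, either with one drug alone or with a fixed anchor-drug dose plus five library-drug doses (not always all listed) in √10 steps. After 5 days, cells were fixed and their nuclei stained in one step (final 0.05% Triton X-100, 1% formaldehyde, 1 ug/ml Hoechst), then counted on 4× images. Relative viability is the nuclei count in treated wells divided by that in vehicle wells. Values are medians of duplicate plates.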

Row | Cell Line | relative viability
1 | NCI-H1793 | 0.416
2 | NCI-H1944 | 0.415
3 | NCI-H358 | 0.121

compound: CC1=CC(=C(N1C2=CC=C(C=C2)Cl)C)C(=O)CN3CCCCC3 [IU1-47] + CC(C)C[C@H](NC(=O)[C@H](Cc1ccccc1)NC(=O)c1cnccn1)B(O)O [Bortezomib] (partner 0.002 µM); test: as above; settings: first compound 0.08 µM
Method in brief: as §1

Row | Cell Line | relative viability
4 | NCI-H727 | 0.742
5 | NCI-H1650 | 0.194
6 | EBC-1 | 0.516
7 | NCI-H1703 | 0.278
8 | NCI-H1993 | 1.26
9 | SW 1573 | 1.15
10 | NCI-H838 | 0.869
11 | LCLC-103H | 1.2
12 | NCI-H520 | 0.679
13 | NCI-H2126 | 1.17
14 | EMC-BAC-2 | 1.09
15 | NCI-H2085 | 0.969
16 | Calu-6 | 1.2
17 | HCC-366 | 1.13
18 | NCI-H1666 | 0.811
19 | NCI-H596 | 1.03
20 | NCI-H2087 | 1.12
21 | H3255 | 1.15
22 | COR-L23 | 1.12
23 | COR-L 105 | 1.23
24 | IA-LM | 0.917
25 | LOU-NH91 | 0.515
26 | ChaGo-K-1 | 0.953
27 | NCI-H2405 | 1.05
28 | NCI-H1299 | 1.08
29 | CAL-12T | 1.05
30 | NCI-H2228 | 1.25
31 | NCI-H1563 | 0.822
32 | ABC-1 | 0.327

same assay, conditions: first compound 0.253 µM

Row | Cell Line | relative viability
33 | NCI-H1650 | 0.171
34 | EBC-1 | 0.528
35 | NCI-H1703 | 0.354
36 | NCI-H1993 | 1.25
37 | SW 1573 | 1.04
38 | NCI-H838 | 0.952
39 | LCLC-103H | 1.14
40 | NCI-H520 | 0.687
41 | NCI-H2126 | 1.18
42 | EMC-BAC-2 | 1.07
43 | NCI-H2085 | 0.968
44 | Calu-6 | 1.02
45 | HCC-366 | 1.02
46 | NCI-H1666 | 0.831
47 | NCI-H596 | 0.929
48 | NCI-H2087 | 0.978
49 | H3255 | 1.12
50 | COR-L23 | 1.1
51 | COR-L 105 | 1.01
52 | IA-LM | 0.899
53 | LOU-NH91 | 0.473
54 | ChaGo-K-1 | 0.971
55 | NCI-H2405 | 0.876
56 | NCI-H1299 | 1.06
57 | CAL-12T | 0.946
58 | NCI-H2228 | 0.922
59 | NCI-H1563 | 0.831
60 | ABC-1 | 0.281

same assay, conditions: first compound 0.8 µM

Row | Cell Line | relative viability
61 | NCI-H727 | 1.13
62 | NCI-H1650 | 0.22
63 | EBC-1 | 0.535
64 | NCI-H1703 | 0.273
65 | NCI-H1993 | 1.18
66 | SW 1573 | 1.41
67 | NCI-H838 | 0.904
68 | LCLC-103H | 1.1
69 | NCI-H520 | 0.821
70 | NCI-H2126 | 1.19
71 | EMC-BAC-2 | 1.04
72 | NCI-H2085 | 1.06
73 | Calu-6 | 0.957
74 | HCC-366 | 1.25
75 | NCI-H1666 | 0.926
76 | NCI-H596 | 1.11
77 | NCI-H2087 | 0.93
78 | H3255 | 0.766
79 | COR-L23 | 1.21
80 | COR-L 105 | 0.851
81 | IA-LM | 0.904
82 | LOU-NH91 | 0.483
83 | ChaGo-K-1 | 0.952
84 | NCI-H2405 | 1.07
85 | NCI-H1299 | 1.09
86 | CAL-12T | 0.945
87 | NCI-H2228 | 0.949
88 | NCI-H1563 | 0.885
89 | ABC-1 | 0.256

same assay, conditions: first compound 2.53 µM

Row | Cell Line | relative viability
90 | NCI-H727 | 0.979
91 | NCI-H1650 | 0.203
92 | EBC-1 | 0.715
93 | NCI-H1703 | 0.403
94 | NCI-H1993 | 1.37
95 | SW 1573 | 1.3
96 | NCI-H838 | 0.624
97 | LCLC-103H | 1.12
98 | NCI-H520 | 0.576
99 | NCI-H2126 | 0.894
100 | EMC-BAC-2 | 1.15
101 | NCI-H2085 | 0.948
102 | Calu-6 | 0.96
103 | NCI-H1666 | 0.728
104 | NCI-H596 | 1.07
105 | NCI-H2087 | 0.914
106 | H3255 | 0.793
107 | COR-L23 | 0.932
108 | COR-L 105 | 0.899
109 | IA-LM | 0.782
110 | LOU-NH91 | 0.535
111 | ChaGo-K-1 | 1.27
112 | NCI-H2405 | 0.894
113 | NCI-H1299 | 0.989
114 | CAL-12T | 0.972
115 | NCI-H2228 | 1.1
116 | NCI-H1563 | 0.775

same assay, conditions: first compound 8 µM

Row | Cell Line | relative viability
117 | NCI-H727 | 0.704
118 | NCI-H1650 | 0.195
119 | EBC-1 | 0.542
120 | NCI-H1703 | 0.504
121 | NCI-H1993 | 1.18
122 | SW 1573 | 0.861
123 | NCI-H838 | 0.564
124 | LCLC-103H | 1.08
125 | NCI-H520 | 0.408
126 | NCI-H2126 | 1.04
127 | EMC-BAC-2 | 1.04
128 | NCI-H2085 | 0.944
129 | Calu-6 | 0.998
130 | HCC-366 | 0.866
131 | NCI-H1666 | 0.727
132 | NCI-H596 | 0.995
133 | NCI-H2087 | 0.616
134 | H3255 | 0.619
135 | COR-L23 | 1.08
136 | COR-L 105 | 0.708
137 | IA-LM | 0.824
138 | LOU-NH91 | 0.451
139 | ChaGo-K-1 | 0.682
140 | NCI-H2405 | 0.994
141 | NCI-H1299 | 0.945
142 | CAL-12T | 0.802
143 | NCI-H2228 | 0.932
144 | NCI-H1563 | 0.552
145 | ABC-1 | 0.312

compound: CC1=CC(=C(N1C2=CC=C(C=C2)Cl)C)C(=O)CN3CCCCC3 [IU1-47] + Nc1ncn([C@H]2C[C@H](O)[C@@H](CO)O2)c(=O)n1 [Decitabine] (partner 2 µM); test: as above; settings: first compound 0.08 µM
Method in brief: as §1

Row | Cell Line | relative viability
146 | NCI-H522 | 0.67
147 | NCI-H727 | 0.875
148 | NCI-H1650 | 0.474
149 | NCI-H1993 | 0.602
150 | SW 1573 | 0.529
151 | NCI-H838 | 0.423
152 | LCLC-103H | 0.793
153 | NCI-H520 | 0.484
154 | NCI-H2126 | 0.564
155 | EMC-BAC-2 | 1.07
156 | NCI-H2085 | 0.54
157 | HCC-366 | 0.375
158 | NCI-H1666 | 0.802
159 | NCI-H596 | 1.05
